Assay results as given in ChEMBL document CHEMBL5537162, “Development of Antibacterial Peptides with Membrane Disruption and Folate Pathway Inhibitory Activities against Methicillin-Resistant Staphylococcus aureus” (J Med Chem, 2024).
Calls of active or inactive are those of the source. The rule behind the calls is not given here.

What was measured:
Cell membrane [1] = assay: Disruption of membrane integrity in methicillin-resistant Staphylococcus aureus measured for 6 hrs by scanning electron microscopic analysis; format: cell membranes
Staphylococcus aureus [2] = assay: Antibacterial activity against methicillin-resistant Staphylococcus aureus assessed as bacterial growth inhibition incubated for 24 hrs by CLSI based micro-broth dilution assay; format: functional
Staphylococcus aureus [3] = assay: Antibacterial activity against Methicillin-resistant Staphylococcus aureus infected in ICR mouse skin infection model assessed as reduction in inflammatory infiltration at 40 mg/kg, sc by H and E staining based microscopic analysis; format: functional, organism-based
Staphylococcus aureus [4] = assay: Antibacterial activity against methicillin-resistant Staphylococcus aureus 19498 assessed as bacterial growth inhibition incubated for 24 hrs by CLSI based micro-broth dilution assay; format: functional
Staphylococcus aureus [5] = assay: Antibacterial activity against methicillin-resistant Staphylococcus aureus 18466 assessed as bacterial growth inhibition incubated for 24 hrs by CLSI based micro-broth dilution assay; format: functional
Cell membrane [6] = assay: Disruption of membrane integrity in methicillin-resistant Staphylococcus aureus assessed as increase in fluorescence intensity measured for 120 mins by confocal microscopic analysis; format: cell membranes
Staphylococcus aureus [7] = assay: Antibacterial activity against Methicillin-resistant Staphylococcus aureus infected in ICR mouse skin infection model assessed as reduction in skin abscess volume at 40 mg/kg, sc measured upto 10 days; format: functional, organism-based; conditions: time <= 10.0 day
[8] = Stability in methicillin-resistant Staphylococcus aureus supernatants measured for 24 hrs by RP-HPLC analysis; format: physicochemical
[9] = Stability in mouse blood plasma measured for 12 hrs by RP-HPLC analysis; format: ADME, cell-free; conditions: read-out: Stability
Staphylococcus aureus [10] = assay: Antibacterial activity against Staphylococcus aureus 6538 assessed as bacterial growth inhibition incubated for 24 hrs by CLSI based micro-broth dilution assay; format: functional
Staphylococcus aureus [11] = assay: Drug resistance, ratio of MIC for methicillin-resistant Staphylococcus aureus after 7 days exposure to MIC for methicillin-resistant Staphylococcus aureus during first exposure; format: functional; conditions: time 7 day
[12] = target: T1, Monofunctional C1-tetrahydrofolate synthase, mitochondrial (Homo sapiens) (UniProt Q6UB35); assay: Inhibition of FTHFS (unknown origin) expressed in Escherichia coli BL21 (DE3) incubated for 10 mins by UV-spectrophotometer analysis
T1 sequence (whole entry): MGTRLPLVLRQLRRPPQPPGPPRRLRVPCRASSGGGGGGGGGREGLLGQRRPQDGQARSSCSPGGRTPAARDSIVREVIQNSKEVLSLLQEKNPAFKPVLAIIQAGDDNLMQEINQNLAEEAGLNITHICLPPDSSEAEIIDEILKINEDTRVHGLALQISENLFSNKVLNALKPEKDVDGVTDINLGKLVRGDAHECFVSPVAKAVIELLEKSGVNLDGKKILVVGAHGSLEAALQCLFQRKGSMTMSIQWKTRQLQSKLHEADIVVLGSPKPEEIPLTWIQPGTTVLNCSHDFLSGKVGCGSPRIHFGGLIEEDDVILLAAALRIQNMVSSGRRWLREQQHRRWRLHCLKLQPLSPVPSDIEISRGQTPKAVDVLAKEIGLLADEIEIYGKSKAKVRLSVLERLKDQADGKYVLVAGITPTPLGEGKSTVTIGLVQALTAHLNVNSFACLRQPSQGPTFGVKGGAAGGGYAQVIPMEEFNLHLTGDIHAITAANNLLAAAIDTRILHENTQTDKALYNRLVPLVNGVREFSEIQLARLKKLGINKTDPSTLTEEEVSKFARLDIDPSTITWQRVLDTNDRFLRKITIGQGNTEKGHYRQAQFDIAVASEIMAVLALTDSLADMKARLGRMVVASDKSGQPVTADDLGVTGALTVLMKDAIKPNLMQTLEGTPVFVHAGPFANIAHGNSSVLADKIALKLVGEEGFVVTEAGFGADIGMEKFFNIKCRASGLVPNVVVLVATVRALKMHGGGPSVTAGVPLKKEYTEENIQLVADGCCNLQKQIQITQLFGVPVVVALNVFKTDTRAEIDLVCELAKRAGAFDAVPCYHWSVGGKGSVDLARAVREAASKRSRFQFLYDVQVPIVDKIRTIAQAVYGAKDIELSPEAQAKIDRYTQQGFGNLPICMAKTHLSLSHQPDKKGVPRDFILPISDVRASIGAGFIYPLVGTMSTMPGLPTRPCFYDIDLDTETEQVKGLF

Staphylococcus aureus [13] = assay: Antibacterial activity against methicillin-resistant Staphylococcus aureus 19047 assessed as bacterial growth inhibition incubated for 24 hrs by CLSI based micro-broth dilution assay; format: functional
Porphyromonas gingivalis = assay: Antibacterial activity against Porphyromonas gingivalis assessed as bacterial growth inhibition incubated for 24 hrs by CLSI based micro-broth dilution assay; format: functional
Staphylococcus aureus [14] = assay: Antibacterial activity against Staphylococcus aureus 25923 assessed as bacterial growth inhibition incubated for 24 hrs by CLSI based micro-broth dilution assay; format: functional
Staphylococcus aureus [15] = assay: Antibacterial activity against Methicillin-resistant Staphylococcus aureus infected in ICR mouse skin infection model assessed as log reduction in bacterial count at 40 mg/kg, sc measured upto 10 days; format: functional; conditions: time <= 10 day
[16] = Stability in mouse blood plasma measured for 24 hrs by RP-HPLC analysis; format: ADME, cell-free
Staphylococcus aureus [17] = assay: Antibacterial activity against methicillin-resistant Staphylococcus aureus 18858 assessed as bacterial growth inhibition incubated for 24 hrs by CLSI based micro-broth dilution assay; format: functional
Staphylococcus aureus [18] = assay: Drug resistance, ratio of MIC for methicillin-resistant Staphylococcus aureus after 1 week exposure to MIC for methicillin-resistant Staphylococcus aureus during first exposure; format: functional; conditions: time 1 weeks
[19] = Selectivity index, ratio of IC50 for antiproliferative activity against HEK293T cells assessed as reduction in cell viability to MIC for antibacterial activity against methicillin-resistant Staphylococcus aureus assessed as bacterial growth inhibition; format: toxicity, cell-based; conditions: human, read-out: Selectivity Index
Staphylococcus aureus [20] = assay: Drug resistance, ratio of MIC for methicillin-resistant Staphylococcus aureus after 3 days exposure to MIC for methicillin-resistant Staphylococcus aureus during first exposure; format: functional; conditions: time 3 day
[21] = target: T2, Monofunctional C1-tetrahydrofolate synthase, mitochondrial (Homo sapiens, UniProt Q6UB35); assay: Binding affinity to FTHFS (unknown origin) expressed in Escherichia coli BL21 (DE3) using IPTG as […] assessed as dissociation constant by MST assay
T2 sequence (Q6UB35 whole entry): T1 sequence (whole entry)

[22] = Stability in methicillin-resistant Staphylococcus aureus supernatants measured for 12 hrs by RP-HPLC analysis; format: physicochemical; conditions: read-out: Stability
Staphylococcus aureus [23] = assay: Antibacterial activity against Staphylococcus aureus assessed as reduction in bacterial growth in presence of PABA; format: functional, organism-based
Staphylococcus aureus [24] = assay: Antibacterial activity against methicillin-resistant Staphylococcus aureus assessed as fold reduction in viable bacteria at 8 times MIC measured at 3 to 6 hrs by time-kill assay; format: functional, organism-based; conditions: time 3-6 hrs
Candida albicans = assay: Antifungal activity against Candida albicans assessed as inhibition of fungal growth; format: functional
Staphylococcus aureus [25] = assay: Antibacterial activity against methicillin-resistant Staphylococcus aureus assessed as fold reduction in viable bacteria at 1 to 8 times MIC measured at 3 hr by time-kill assay; format: functional
Pseudomonas aeruginosa = assay: Antibacterial activity against Pseudomonas aeruginosa assessed as bacterial growth inhibition incubated for 24 hrs by CLSI based micro-broth dilution assay; format: functional
Escherichia coli = assay: Antibacterial activity against Escherichia coli assessed as bacterial growth inhibition incubated for 24 hrs by CLSI based micro-broth dilution assay; format: functional
Staphylococcus aureus [26] = assay: Antibacterial activity against methicillin-resistant Staphylococcus aureus assessed as reduction in viable bacteria at 1 to 8 times MIC measured at 1 hr by time-kill assay; format: functional, organism-based

| Substance | Activity (Cell membrane [1]) | MIC (Staphylococcus aureus [2]) [µM] | Activity (Staphylococcus aureus [3]) | MIC (Staphylococcus aureus [4]) [µM] | MIC (Staphylococcus aureus [5]) [µM] | Activity (Cell membrane [6]) | Activity (Staphylococcus aureus [7]) | Stability [8] | remaining at 12 h [9] [%] | MIC (Staphylococcus aureus [10]) [µM] | Ratio (Staphylococcus aureus [11]) | inhibition [12] | MIC (Staphylococcus aureus [13]) [µM] | MIC (Porphyromonas gingivalis) [µM] | MIC (Staphylococcus aureus [14]) [µM] | log(activity) (Staphylococcus aureus [15]) | Stability [16] | MIC (Staphylococcus aureus [17]) [µM] | Ratio (Staphylococcus aureus [18]) | selectivity ratio [19] | other results |
| --- | --- | --- | --- | --- | --- | --- | --- | --- | --- | --- | --- | --- | --- | --- | --- | --- | --- | --- | --- | --- | --- |
| H-LARVARRVIRFIRRAW-NH2 | Active | 3 | Active | 6 | 6 | Active | Active | Stable | 20 | 3 | 100 | Active | 3 | 12 | 3 | 5.9 | Unstable | 3 | 4 | 107 | Ratio (Staphylococcus aureus [20]): 50; Kd [21]: 2.24 µM; remaining at 12 h [22]: 50%; Activity (Staphylococcus aureus [23]): Active; Activity (Staphylococcus aureus [24]): Active; MIC (Candida albicans): 3 µM; fold change (FC) (Staphylococcus aureus [25]): ~300; MIC (Pseudomonas aeruginosa): > 48 µM; MIC (Escherichia coli): > 48 µM; Activity (Staphylococcus aureus [26]): Active |
| H-RRRLARRLIFFIRRAW-NH2 | Active | 3 | Active | 3 | 6 | Active | Active | Stable | 20 | 3 | 100 | Active | 6 | 12 | 3 | 5.8 | Unstable | 3 | 8 | 107 | Ratio (Staphylococcus aureus [20]): 50; Kd [21]: 3.68 µM; remaining at 12 h [22]: 25%; Activity (Staphylococcus aureus [23]): Active; Activity (Staphylococcus aureus [24]): Active; MIC (Candida albicans): 3 µM; fold change (FC) (Staphylococcus aureus [25]): ~300; MIC (Pseudomonas aeruginosa): > 48 µM; MIC (Escherichia coli): > 48 µM; Activity (Staphylococcus aureus [26]): Active |
